This passage reports GI50 and TGI results from PubChem BioAssay (NCI).

What all share (experiment): inhibition of tumour cell growth, NCI panel, 48 h
For experiment [1], the system named is 786-0 renal.
In experiment [2] the test system is KM12 colon.
The subject of experiment [3] is M14 melanoma.
For experiment [4], the system named is RXF 393 renal.
Experiment [5] has as its system SK-MEL-5 melanoma.
For experiment [6], the system named is SN12C renal.
Experiment [7] has as its system SW-620 colon.
For experiment [8], the system named is UO-31 renal.
The subject of experiment [9] is HCT-116 colon.

“And” between values parts separate entries of the source, which are not always exact repeats. Identical values can stand only once.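 48-hour exposure; five concentrations; linearly interpolated endpoints. Here, GI50 denotes the concentration required for 50% inhibition of growth. TGI marks complete inhibition of growth.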 Bounds are passed on as bounds.

Regarding `CCCCCCCCCCN=C(N)c1ccc(N2CCN(c3ccc(C(N)=NCCCCCCCCCC)cc3)CC2)cc1`, the GI50 was 16 µM in experiment [1]; 2.9 µM in experiment [2]; 18 µM in experiment [3]; 6.82 µM in experiment [4]; 2.19 µM in experiment [5]; 2.19 µM in experiment [6]. Moreover, the GI50 in [7] is 2.65 µM; in [8], 22.6 µM. Further, the TGI in experiment [1] is > 50 µM; in [2], 17.8 µM; in experiment [3], > 50 µM; in experiment [4], 36.1 µM; in [5], > 50 µM; in experiment [6], 15.2 µM. Moreover, the TGI in [7] and in [8] was > 50 µM each time.
On to `O=C(CC1(O)C(=O)Nc2c(Cl)ccc(Cl)c21)c1ccc(Cl)cc1` (configuration not stated), for which the TGI in experiment [1] worked out at 32.1 µM; in experiment [9] it was 70.6 µM; in experiment [2] it was 78 µM; in [3], 69.1 µM; in experiment [4], 56.8 µM; in experiment [6], 34.1 µM. In addition, the TGI in experiment [7] and in experiment [8] was > 100 µM each time.
Take `O=C(/C=C(\[O-])c1ccccc1)CCCCCCC(=O)/C=C(\[O-])c1ccccc1.O=C(/C=C(\[O-])c1ccccc1)CCCCCCC(=O)/C=C(\[O-])c1ccccc1.O=C(/C=C(\[O-])c1ccccc1)CCCCCCC(=O)/C=C(\[O-])c1ccccc1.[Y+3].[Y+3]`: the GI50 in [1] was 21.7 µM; in experiment [9] it was 14.9 µM; in [2], > 50 µM; in [3] it was > 50 µM; in experiment [4] it was 11 µM; in experiment [5] it was 34.8 µM. The GI50 in experiment [6] was 47.3 µM; in [7], > 50 µM; in [8] it was > 50 µM. For the same molecule, the TGI in experiment [1] was > 50 µM; in [9], > 50 µM; in [2], > 50 µM; in [3] it was > 50 µM; in [4], 37.4 µM; in [5], > 50 µM. Besides, the TGI in experiment [6], in experiment [7] and in experiment [8] was > 50 µM each time.
For `CN(C)c1ccc(/C=c2/sc3nc(=O)c(-c4ccccc4NC(=O)C(F)(F)F)nn3c2=O)cc1`, the TGI in experiment [1], in experiment [2], in [3], in experiment [4], in experiment [5] and in [6] was > 100 µM each time. Moreover, the TGI in experiment [7] and in [8] was > 100 µM throughout.
In the case of `C/C(=C\c1ccccc1)C(O)C(=O)c1nc2ccc(Cl)cc2[nH]c1=O` (configuration not stated), the TGI in [1], in [9], in experiment [2], in [3], in [5] and in [6] was > 100 µM throughout. For the same molecule, the TGI in [7] and in experiment [8] was > 100 µM throughout.
On to `CCCCC(C(=O)C(=O)Nc1ccccc1CC)C(=O)C(C)C` (configuration not stated), for which the TGI in experiment [1], in [9], in experiment [2], in experiment [3], in [5] and in experiment [6] was > 100 µM throughout. The TGI in [7] and in experiment [8] was > 100 µM in each case.
Turning to `CC(=O)NC(CCCNC(=O)OCc1ccccc1)C(=O)NCc1ccccc1` (configuration not stated), the TGI in experiment [1], in experiment [9], in experiment [2], in experiment [3], in experiment [4] and in experiment [5] was > 100 µM each time. Also, the TGI in experiment [6], in experiment [7] and in experiment [8] was > 100 µM throughout.
In the case of `O=[N+]([O-])c1ccc(/C=C/c2ccc(/C=C/c3ccc([N+](=O)[O-])cc3[N+](=O)[O-])cc2)c([N+](=O)[O-])c1`, the TGI in experiment [1], in experiment [9], in experiment [2], in experiment [3], in [4] and in experiment [5] was > 100 µM in each case. Also, the TGI in experiment [7] and in experiment [8] was > 100 µM each time.
Turning to `N#CC1(CCCCl)CCCCC1`, the TGI in [1], in [9], in experiment [2], in experiment [3], in experiment [4] and in [5] was > 100 µM in each case. The TGI in experiment [6], in experiment [7] and in experiment [8] was > 100 µM in each case.
As for `CCOC(=O)C1C(NC(N)=O)N(Cc2ccccc2)C(=O)N1Cc1ccccc1` (configuration not stated), the TGI in experiment [1], in experiment [9], in experiment [2], in [3], in experiment [5] and in [7] was > 100 µM in each case. Besides, in [8], the TGI was > 100 µM.
As to `N#Cc1c(CC(=O)O)cc(=O)n2c1[nH]c1ccccc12`, the TGI in experiment [1], in [9], in [2], in experiment [3], in experiment [4] and in [5] was > 100 µM throughout. Further, the TGI in [6], in experiment [7] and in [8] was > 100 µM in each case.
With `O/N=C1/C(=C/c2ccc(OCc3ccccc3)cc2)CCCC1C(NO)c1ccc(OCc2ccccc2)cc1` (configuration not stated), the TGI was > 100 µM in experiment [1]; > 100 µM in experiment [9]; > 100 µM in experiment [2]; > 100 µM in [3]; 24.9 µM in [4]; > 100 µM in [5]. In addition, the results for the TGI in [6], in experiment [7] and in experiment [8] were 9.54 µM, > 100 µM and > 100 µM, respectively.
For `CCCCCNC(=O)CCCCCCCCCCCNC(=O)CCCCCCCCCCN1C=CC(=CC=C2C=CC(=O)C=C2)C=C1`, the TGI in experiment [1], in experiment [9], in experiment [2], in [3], in [4] and in experiment [5] was > 100 µM each time. Besides, the TGI in experiment [6], in [7] and in experiment [8] was > 100 µM each time.
Turning to `CC(C)(C)C1CCC(O)(c2ccccc2)CC1` (configuration not stated), the TGI in [1] was > 100 µM and 41.6 µM; in [9], > 100 µM and 47.9 µM; in experiment [2] it was > 100 µM and 63.6 µM; in experiment [3], > 100 µM and 42.8 µM; in experiment [4], > 100 µM and 41.8 µM; in [5] it was > 100 µM and 28.5 µM. The TGI is > 100 µM and 34.7 µM in [6]; > 100 µM and 40.1 µM in [7]; > 100 µM in experiment [8].
Consider `COc1ccc(C(C)Nc2cc(OC)c(OC)c(OC)c2)cc1` (configuration not stated), for which the TGI in experiment [1] was > 100 µM; in experiment [9] it was > 46.2 µM; in experiment [2] it was > 100 µM; in [3], > 100 µM; in [4] it was 20.9 µM; in experiment [5], > 100 µM. Also, the TGI in [6], in [7] and in experiment [8] was > 100 µM each time.
Consider `Cc1ccccc1NC(=O)CC(=O)NNCC(=O)Nc1nnc(-c2ccccc2)s1`, for which the TGI in experiment [1], in [9], in experiment [2], in experiment [3], in [5] and in experiment [6] was > 100 µM each time. The TGI in experiment [7] and in [8] was > 100 µM each time.
Consider `COC(=O)C1CC(=O)O[C@H]1c1ccc(OC)c(OC)c1` (some centres not stated), for which the TGI in experiment [1], in experiment [9], in experiment [2], in experiment [3], in [4] and in experiment [5] was > 100 µM in each case. Further, the TGI in experiment [6], in [7] and in experiment [8] was > 100 µM each time.
For `CNS(=O)(=O)NNS(=O)(=O)c1ccc(C)cc1`, the TGI in experiment [1], in [9], in experiment [2], in [3], in experiment [4] and in experiment [5] was > 100 µM each time. Besides, the TGI in experiment [6], in experiment [7] and in [8] was > 100 µM in each case.
On to `O=C1Nc2ccc(Cl)cc2/C1=N/c1nc(-c2ccc(Cl)cc2)cs1`, for which the GI50 was 1.46 µM in [1]; 1.3 µM in experiment [9]; 1.37 µM in experiment [2]; 1.4 µM in experiment [3]; 1.67 µM in experiment [7]. Further, the TGI in [1] was found to be 3.7 µM; in experiment [9], 2.71 µM; in [2], 4.55 µM; in experiment [3], 2.82 µM; in experiment [7], 4.29 µM.
Take `COC1=CC(=O)C(O)=C(CC2(C)C(C)CCC3(C)C2CCCC3(C)C)C1=O` (configuration not stated): the TGI was found to be 19.1 µM in experiment [1]; 21.3 µM in experiment [9]; 27.3 µM in [2]; 7.65 µM in experiment [3]; 7.79 µM in [4]; 12.2 µM in experiment [5]. In addition, the TGI came out at 15.3 µM in [6], 30.5 µM in experiment [7] and 17.2 µM in experiment [8].
Regarding `Nc1ccccc1C(=O)/C=C/c1ccccc1O`, the TGI in experiment [1], in [9], in experiment [2], in experiment [3], in experiment [4] and in experiment [5] was > 100 µM each time. In addition, the TGI in experiment [6], in experiment [7] and in experiment [8] was > 100 µM each time.
As to `COC(=O)N/N=C(\C)c1sc(-c2nc(C)c(/C(C)=N/NC(=O)OC)s2)nc1C`, the TGI in [1], in [9], in experiment [2], in [3], in [4] and in experiment [5] was > 100 µM each time. For the same molecule, the TGI in experiment [6] and in experiment [8] was > 100 µM in each case.
For the molecule `ON1CCc2c([nH]c3ccccc23)C1c1ccc(Cl)cc1` (configuration not stated), the TGI in [1] is > 100 µM; in [9], 15.4 µM; in experiment [2] it was 92.9 µM; in [3], > 100 µM; in experiment [4] it was 60.3 µM; in experiment [6], 81 µM. The values for the TGI in experiment [7] and in experiment [8] were > 100 µM and 91.7 µM, respectively.
For the molecule `CC(C)(C)C1CC[C@H]2c3c([nH]c4ccccc34)[C@H]3C(=O)N(c4ccc(F)cc4)C(=O)[C@H]3[C@H]2C1` (some centres not stated), the TGI is 23.5 µM in experiment [1]; 25 µM in experiment [9]; 27.8 µM in [2]; 38.4 µM in experiment [3]; 43.9 µM in experiment [4]; 35.8 µM in [5]. Further, the TGI in experiment [6] is 23.6 µM; in experiment [7] it was 35.8 µM; in experiment [8], 29.7 µM.
For the molecule `CN(C)c1ccc(/C=C2\CCc3ccccc3C2=O)cc1Br`, the TGI in [1] is > 100 µM; in experiment [9], > 100 µM; in [2], > 100 µM; in [3] it was > 100 µM; in experiment [4], > 100 µM; in [5] it was 76.8 µM. Moreover, the TGI in [6], in [7] and in experiment [8] was > 100 µM each time.
On to `CN(C)CCNC(=O)c1cccc2c1nc(-c1cccnc1)c1ccccc12`, for which the TGI in experiment [1] turned out to be 24.6 µM; in [9], 13.8 µM; in experiment [2], 46.5 µM; in [3] it was 19.9 µM; in experiment [4], 17.1 µM; in experiment [5], 15.1 µM. Moreover, the TGI in experiment [6] worked out at 35.4 µM; in [7], 25.3 µM; in [8], 10.8 µM.
`CC(C)CCCC(C)C1CCC2C3CC([N+](=O)[O-])=C4CC(O)CCC4(C)C3CCC12C` (configuration not stated): the TGI came to 33 µM in experiment [1]; 28.9 µM in [9]; 37 µM in [2]; 28.8 µM in experiment [3]; 50.9 µM in [4]; 32.1 µM in experiment [6]. The molecule also displayed a TGI in experiment [7] of 59.1 µM.
As for `C=CCN(CC=C)Cc1c[nH]c2ccccc12`, the GI50 in [1] is 4.33 µM; in [9], 14.6 µM; in experiment [2], 32.2 µM; in [5], 6 µM; in [6], 16 µM; in experiment [7] it was 26.3 µM. Further, the GI50 in [8] was 35.2 µM. The TGI in [1] was 14.7 µM; in experiment [9] it was 32.1 µM; in experiment [2] it was > 100 µM; in experiment [5], 23.8 µM; in experiment [6] it was 41.8 µM; in [7] it was > 100 µM. Also, in experiment [8], the TGI is > 100 µM.
